Reference: ChEMBL document CHEMBL5579820, “New insights into butyrylcholinesterase: Pharmaceutical applications, selective inhibitors and multitarget-directed ligands” (Eur J Med Chem, 2024)

Key:
[1] = Inhibition of equine serum BChE using butyrylthiocholine iodide as substrate incubated for 30 mins by Ellman's method; design: species or system Equus caballus
[2] = biological target: Indoleamine 2,3-dioxygenase 1 (Homo sapiens, UniProt P14902); assay: Inhibition of IDO1 (unknown origin)
Acetylcholinesterase [3] = biological target: T1, Acetylcholinesterase (Homo sapiens, UniProt P22303); assay: Inhibition of human recombinant AChE using acetylthiocholine iodide as substrate preincubated for 30 mins followed by substrate addition and measured for 60 mins by Ellman's method
[4] = Inhibition of equine serum BChE using butyrylthiocholine iodide as substrate by measured after 30 mins Ellman's method; format: cell-free, Equus caballus
Acetylcholinesterase [5] = biological target: Acetylcholinesterase (Electrophorus electricus, UniProt O42275); assay: Inhibition of electric eel AChE using acetylthiocholine iodide as substrate by Ellman's method
[6] = biological target: T2, Amine oxidase [flavin-containing] B (Homo sapiens, UniProt P27338); assay: Inhibition of human recombinant MAO-B using benzylamine as substrate by fluorescence based analysis
T2 sequence (P27338 whole entry): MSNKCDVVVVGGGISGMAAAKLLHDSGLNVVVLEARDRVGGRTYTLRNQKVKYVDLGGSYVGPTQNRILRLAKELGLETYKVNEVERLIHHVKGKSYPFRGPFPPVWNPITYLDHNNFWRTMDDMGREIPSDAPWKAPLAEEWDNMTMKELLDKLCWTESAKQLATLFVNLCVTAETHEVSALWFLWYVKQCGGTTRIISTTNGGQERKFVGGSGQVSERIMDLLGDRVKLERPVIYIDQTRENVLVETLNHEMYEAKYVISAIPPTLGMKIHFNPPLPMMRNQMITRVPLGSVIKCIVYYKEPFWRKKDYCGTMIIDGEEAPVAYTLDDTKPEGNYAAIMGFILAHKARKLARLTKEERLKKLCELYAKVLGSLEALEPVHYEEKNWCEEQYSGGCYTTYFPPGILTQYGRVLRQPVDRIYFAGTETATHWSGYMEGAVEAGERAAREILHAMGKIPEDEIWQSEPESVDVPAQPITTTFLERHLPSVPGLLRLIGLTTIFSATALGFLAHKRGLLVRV

[7] = biological target: T3, Amine oxidase [flavin-containing] A (Homo sapiens, UniProt P21397); assay: Inhibition of human recombinant MAO-A using kynuramine as substrate by incubated for 75 mins by spectrophotometric analysis
T3 sequence (P21397 whole entry): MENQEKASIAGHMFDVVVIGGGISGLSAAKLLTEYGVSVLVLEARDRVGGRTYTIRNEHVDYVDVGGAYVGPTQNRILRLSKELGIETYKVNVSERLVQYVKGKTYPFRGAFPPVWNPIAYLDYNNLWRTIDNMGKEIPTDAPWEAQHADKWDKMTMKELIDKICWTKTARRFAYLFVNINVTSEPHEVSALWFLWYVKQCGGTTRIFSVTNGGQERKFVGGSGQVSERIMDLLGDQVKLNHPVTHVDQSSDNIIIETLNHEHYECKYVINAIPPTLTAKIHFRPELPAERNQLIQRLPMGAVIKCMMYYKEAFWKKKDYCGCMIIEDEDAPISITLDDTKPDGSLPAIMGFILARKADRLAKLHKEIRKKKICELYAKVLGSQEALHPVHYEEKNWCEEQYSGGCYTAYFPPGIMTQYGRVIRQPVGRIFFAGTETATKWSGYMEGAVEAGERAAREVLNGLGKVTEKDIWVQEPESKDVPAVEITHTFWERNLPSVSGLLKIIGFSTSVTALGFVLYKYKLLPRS

Acetylcholinesterase [8] = biological target: T1, Acetylcholinesterase; assay: Inhibition of human AChE using acetylthiocholine iodide as substrate by Ellman's method
Cholinesterase [9] = biological target: T4, Cholinesterase (Homo sapiens, UniProt P06276); assay: Inhibition of human BChE using butyrylthiocholineiodide as substrate by Ellman's method
Cholinesterase [10] = biological target: T4, Cholinesterase; assay: Inhibition of BChE (unknown origin) incubated for 10 mins by Ellman's method
Cholinesterase [11] = biological target: Cholinesterase (Equus caballus, UniProt P81908); assay: Inhibition of equine serum BuChE using S-butyrylthiocholine chloride as substrate by Ellman's method; format: cell-free
Chain of Cholinesterase (Equus caballus, UniProt P81908) (P81908 whole entry): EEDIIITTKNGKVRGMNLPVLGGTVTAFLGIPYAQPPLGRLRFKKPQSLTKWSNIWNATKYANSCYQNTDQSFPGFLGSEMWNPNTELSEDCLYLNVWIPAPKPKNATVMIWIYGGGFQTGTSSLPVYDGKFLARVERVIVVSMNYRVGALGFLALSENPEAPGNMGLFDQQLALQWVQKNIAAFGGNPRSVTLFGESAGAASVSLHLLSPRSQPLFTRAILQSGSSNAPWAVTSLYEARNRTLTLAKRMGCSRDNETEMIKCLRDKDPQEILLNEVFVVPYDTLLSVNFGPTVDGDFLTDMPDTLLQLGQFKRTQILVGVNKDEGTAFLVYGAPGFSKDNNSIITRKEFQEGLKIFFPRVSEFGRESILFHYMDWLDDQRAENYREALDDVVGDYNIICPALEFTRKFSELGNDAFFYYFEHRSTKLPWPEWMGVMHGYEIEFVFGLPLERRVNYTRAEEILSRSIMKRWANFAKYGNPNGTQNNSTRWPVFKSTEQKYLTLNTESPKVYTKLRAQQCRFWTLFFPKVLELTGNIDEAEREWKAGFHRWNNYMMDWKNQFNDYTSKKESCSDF

T4 sequence (P06276 whole entry): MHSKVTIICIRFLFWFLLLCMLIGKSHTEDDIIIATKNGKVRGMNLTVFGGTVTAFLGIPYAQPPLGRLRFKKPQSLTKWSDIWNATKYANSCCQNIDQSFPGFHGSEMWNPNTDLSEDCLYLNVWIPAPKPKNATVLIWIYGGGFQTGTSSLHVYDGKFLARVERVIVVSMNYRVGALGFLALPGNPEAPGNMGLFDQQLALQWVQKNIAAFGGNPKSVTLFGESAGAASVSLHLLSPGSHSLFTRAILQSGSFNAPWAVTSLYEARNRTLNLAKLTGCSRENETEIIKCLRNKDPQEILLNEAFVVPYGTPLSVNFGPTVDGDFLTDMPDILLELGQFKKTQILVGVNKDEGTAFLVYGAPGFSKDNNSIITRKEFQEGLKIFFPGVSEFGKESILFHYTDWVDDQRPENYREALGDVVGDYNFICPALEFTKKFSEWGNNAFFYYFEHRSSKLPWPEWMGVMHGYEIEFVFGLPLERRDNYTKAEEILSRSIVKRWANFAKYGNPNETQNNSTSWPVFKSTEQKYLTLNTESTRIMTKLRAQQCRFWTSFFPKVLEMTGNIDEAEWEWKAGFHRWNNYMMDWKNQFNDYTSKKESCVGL
T1 sequence (P22303 whole entry): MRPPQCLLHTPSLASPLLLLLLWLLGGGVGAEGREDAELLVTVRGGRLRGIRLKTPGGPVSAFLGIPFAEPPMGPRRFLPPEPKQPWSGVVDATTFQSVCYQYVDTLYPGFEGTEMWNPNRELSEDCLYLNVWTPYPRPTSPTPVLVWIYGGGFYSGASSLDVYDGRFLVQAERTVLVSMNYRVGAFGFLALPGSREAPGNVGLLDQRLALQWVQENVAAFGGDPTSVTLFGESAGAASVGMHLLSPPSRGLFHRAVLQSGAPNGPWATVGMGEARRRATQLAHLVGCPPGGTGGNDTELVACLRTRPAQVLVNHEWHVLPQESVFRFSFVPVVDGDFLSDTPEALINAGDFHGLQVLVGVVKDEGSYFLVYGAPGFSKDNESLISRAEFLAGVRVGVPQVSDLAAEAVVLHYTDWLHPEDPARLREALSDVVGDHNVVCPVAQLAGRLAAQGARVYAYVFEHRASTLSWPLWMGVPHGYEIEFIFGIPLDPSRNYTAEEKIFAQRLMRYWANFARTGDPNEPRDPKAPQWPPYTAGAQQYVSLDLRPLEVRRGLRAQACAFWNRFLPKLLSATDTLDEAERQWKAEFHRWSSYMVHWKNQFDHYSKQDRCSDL
Chain of Acetylcholinesterase (Electrophorus electricus, UniProt O42275) (O42275 whole entry): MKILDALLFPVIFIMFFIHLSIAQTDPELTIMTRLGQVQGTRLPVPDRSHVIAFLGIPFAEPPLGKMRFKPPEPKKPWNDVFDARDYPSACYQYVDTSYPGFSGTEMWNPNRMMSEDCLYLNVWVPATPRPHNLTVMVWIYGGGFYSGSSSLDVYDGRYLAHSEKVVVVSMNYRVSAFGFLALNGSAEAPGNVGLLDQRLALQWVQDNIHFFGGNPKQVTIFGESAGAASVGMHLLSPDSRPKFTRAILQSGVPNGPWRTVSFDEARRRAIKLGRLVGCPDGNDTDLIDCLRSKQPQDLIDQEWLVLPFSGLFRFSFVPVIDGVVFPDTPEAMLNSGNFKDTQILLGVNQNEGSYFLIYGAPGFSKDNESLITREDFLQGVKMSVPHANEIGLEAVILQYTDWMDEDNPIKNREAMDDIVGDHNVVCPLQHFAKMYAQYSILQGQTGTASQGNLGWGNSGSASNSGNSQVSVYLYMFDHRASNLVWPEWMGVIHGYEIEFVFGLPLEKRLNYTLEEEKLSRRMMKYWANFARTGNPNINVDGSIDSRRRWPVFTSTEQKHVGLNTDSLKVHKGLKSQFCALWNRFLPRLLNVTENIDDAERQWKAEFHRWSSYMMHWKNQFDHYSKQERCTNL
Chain of Indoleamine 2,3-dioxygenase 1 (P14902 whole entry): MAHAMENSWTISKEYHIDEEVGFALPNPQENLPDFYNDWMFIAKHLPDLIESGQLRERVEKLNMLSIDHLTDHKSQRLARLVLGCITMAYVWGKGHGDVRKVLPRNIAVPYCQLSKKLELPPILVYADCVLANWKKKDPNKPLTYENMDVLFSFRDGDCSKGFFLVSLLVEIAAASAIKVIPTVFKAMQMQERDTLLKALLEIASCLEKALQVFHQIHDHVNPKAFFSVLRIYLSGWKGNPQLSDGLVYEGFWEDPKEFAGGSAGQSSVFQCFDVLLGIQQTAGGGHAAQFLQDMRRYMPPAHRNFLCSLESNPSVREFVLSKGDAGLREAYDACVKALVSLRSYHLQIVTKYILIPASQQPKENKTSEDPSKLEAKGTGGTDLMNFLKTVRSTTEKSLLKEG

## COc1cccc(COC(Cn2ccnc2)c2ccc(F)c(F)c2)c1 (stereo unspecified)
[1]
  IC50: 13.2 µM
[2]
  IC50: 22.8 µM

## Clc1ccc(C(Cn2ccnc2)OCc2csc3c(Cl)cccc23)c(Cl)c1 (stereo unspecified) [SERTACONAZOLE]
Acetylcholinesterase [3]
  IC50: 0.1 µM

## COc1cccc(COc2ccc(C(C)=O)c(OCc3cn(CCc4c[nH]c5ccccc45)nn3)c2)c1
[4]
  IC50: 0.92 µM
Acetylcholinesterase [5]
  IC50: > 100 µM
[6]
  IC50: 3.71 µM
[7]
  IC50: 74.7 µM

## Cc1cc2c(cc1C)[n+](Cc1ccccc1C)cn2C(c1ccccc1)c1ccccc1
Acetylcholinesterase [8]
  IC50: 4.19 µM
Cholinesterase [9]
  IC50: 0.15 µM

## CN1CCc2c(c3cc(F)ccc3n2CCNC23CC4CC(C)(CC(C)(C4)C2)C3)C1
Cholinesterase [10]
  IC50: 39.7 µM
Cholinesterase [11]
  IC50: 0.72 µM
